From patent US20210228523A1, “MODULATORS OF SESTRIN-GATOR2 INTERACTION AND USES THEREOF” (Navitor Pharmaceuticals, Inc., priority 2017, published 2021) come the findings set out here.

The experiment deals with T1, GATOR2/Sestrin2 complexes (Homo sapiens, UniProt P58004).
T1 construct: endogenous in cells; host or cells: HEK293T cells stably expressing FLAG-WDR24 (lentiviral, pLJM60)
T1 sequence (P58004 1-480): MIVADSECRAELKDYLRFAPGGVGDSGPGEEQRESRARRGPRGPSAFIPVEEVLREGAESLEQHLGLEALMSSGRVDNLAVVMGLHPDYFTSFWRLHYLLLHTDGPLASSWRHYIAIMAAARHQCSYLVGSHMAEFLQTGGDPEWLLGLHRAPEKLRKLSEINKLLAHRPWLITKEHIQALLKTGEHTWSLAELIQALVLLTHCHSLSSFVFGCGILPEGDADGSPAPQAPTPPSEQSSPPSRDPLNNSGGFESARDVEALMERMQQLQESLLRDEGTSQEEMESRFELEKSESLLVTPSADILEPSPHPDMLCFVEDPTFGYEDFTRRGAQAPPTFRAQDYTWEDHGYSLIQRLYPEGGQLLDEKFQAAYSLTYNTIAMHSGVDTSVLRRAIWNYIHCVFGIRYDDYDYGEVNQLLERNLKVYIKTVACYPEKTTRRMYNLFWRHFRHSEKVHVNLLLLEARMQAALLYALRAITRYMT
Kind of experiment: In vitro PPI assay (Method 1; Western blot assay): Sestrin2 bound to GATOR2 after compound addition to immunoprecipitated FLAG-WDR24 complex. The experiment is classed as binding. Conditions: 25 μM, % activity relative to leucine (25 μM = 100%). The text has this:
This screening assay measured test compound activity in vitro on GATOR2/Sestrin2 complexes purified via immunoprecipitation of stably expressed FLAG-WDR24 from HEK293T cells. HEK293T cells (293 Ts) were engineered to stably express N-terminally tagged FLAG-WDR24 via transduction by lentivirus. Lentiviruses were produced by co-transfection of the lentiviral transfer vector pLJM60 with the […] into HEK-293T cells using the XTremeGene 9 transfection reagent (Roche Diagnostics). The media was changed 24 hours post-transfection to Dulbecco's Modified Eagle's media (DMEM) supplemented with 30% Inactivated Fetal Serum. The virus-containing supernatants were collected 48 and 72 hours after transfection and passed through a 0.45 μm filter to eliminate cells. Target cells in 6-well tissue culture plates were infected in media containing 8 μg/mL polybrene and spin infections were performed by centrifugation at 2,200 rpm for 1 hour. Twenty-four hours after infection, the virus was removed and the cells selected with the appropriate antibiotic. Cells were then grown in DMEM supplemented with 10% fetal bovine serum and antibiotics.
Seventy-two hours later, cells were placed in standard RPMI media formulated with no amino acids and supplemented with 5 mM Glucose (−AA RPMI, US Biological Life Sciences) for 1 hour then subsequently lysed in lysis buffer (40 mM HEPES, 1% Triton, 10 mM sodium β-glycerophosphate, 10 mM sodium pyrophosphate, 2.5 mM MgCl2 and protease inhibitors). To isolate the FLAG-WDR24/endogenous-Sestrin2 complex, crude lysate (equivalent to 2-4 mg of total protein) in a volume of 1 ml was subjected to immunoprecipitation with 30 μl of anti-flag resin (SIGMA) for 2 hours at 4° C., washed twice in cold lysis buffer plus 0.5M NaCl and resuspended in 1 ml of cold cytosolic buffer (40 mM HEPES pH 7.4, 140 mM KCl, 10 mM NaCl, 2.5 mM MgCl2, 0.1% TritonX-100). […] After the incubation period, samples were centrifuged to pellet the FLAG-WDR24/endogenous-Sestrin2 complex bound to the anti-flag resin, the supernatant was completely removed and resin was resuspended in SDS-PAGE sample buffer and boiled for 5 minutes. Samples were then processed by SDS-PAGE and western blots were performed with anti-FLAG (SIGMA) and anti-Sestrin2 (Cell Signaling Technology) antibodies as described in L. Chantranupong, et al., Cell Reports 9:1-8 (2014).
The resulting western blots were scanned and band intensities corresponding to Sestrin2 and FLAG-WDR24 were quantified using the LI-COR® imaging platform. To determine the amount of Sestrin2 bound to GATOR2 for each condition, the band intensity for Sestrin2 was normalized to the band intensity of FLAG-WDR24. […]
72 hours later, cells were placed in standard RPMI media formulated with no amino acids and supplemented with 5 mM Glucose (−AA RPMI, USBiological Life Sciences) for 1 hour then subsequently lysed in lysis buffer (40 mM HEPES, 1% Triton, 10 mM Sodium Beta-Glycerophosphate, 10 mM Sodium Pyrophosphate, 2.5 mM MgCl2 and protease inhibitors). The Flag-WDR24/endogenous-Sestrin2 complex was isolated as follows: crude lysate (equivalent to 2-4 mg of total protein) in a volume of 1 ml was subjected to immunoprecipitation (IP) with 30 μl of anti-flag resin (SIGMA) for 2 hours at 4° C., washed twice in cold lysis buffer plus 0.5M NaCl and resuspended in 1 ml of cold cytosolic buffer (40 mM HEPES pH 7.4, 140 mM KCl, 10 mM NaCl, 2.5 mM MgCl2, 0.1% TritonX-100). Compounds were then added to each sample at a given concentration of 25 μM and incubated with rotation at 4° C. for 30 minutes. After the incubation period, samples were centrifuged to pellet the Flag-WDR24/endogenous-Sestrin2 complex bound to the anti-flag resin, the supernatant was completely removed and resin was resuspended in sodium dodecyl sulfate-polyacrylamide gel electrophoresis (SDS-PAGE) sample buffer and boiled for 5 minutes. […]
In general terms: In western blotting, separated proteins are transferred to a membrane and probed.
With `CCCC[C@H](N)C(=O)O` [Compound I-31], the “Activity of Leucine: % Activity” value was “A (a % activity relative to leucine of ≥40%)”.
As to `CC(C)C[C@](C)(N)C(=O)O` [Compound I-32], the “Activity of Leucine: % Activity” value is recorded as “A (a % activity relative to leucine of ≥40%)”.
The same measure for `CC(C)CC(N)S(=O)(=O)O` (stereo not drawn) [Compound I-33]: “C (a % activity relative to leucine of between -40 and 40%)”; for `CC(C)C[C@H](N)CC(=O)O` [Compound I-34]: “C (a % activity relative to leucine of between -40 and 40%)”; for `N[C@@H](CC1CC1)C(=O)O` [Compound I-35]: “A (a % activity relative to leucine of ≥40%)”.
Next, `CC(=O)N[C@@H](CC(C)C)C(=O)O` [Compound I-36, (S)-2-acetamido-4-methylpentanoic Acid]: “B (a % activity relative to leucine of ≤−40%)”; `CC(C)C[C@H](N)B1OC(C)(C)C(C)(C)O1` [Compound I-38]: “C (a % activity relative to leucine of between -40 and 40%)”; `COCCC(N)C(=O)O` (stereo not drawn) [Compound I-39]: “C (a % activity relative to leucine of between -40 and 40%)”.
Take `N[C@H](CC1CCCC1)C(=O)O` [Compound I-40]: the “Activity of Leucine: % Activity” value is on record as “A (a % activity relative to leucine of ≥40%)”.
Next, `CC(C)C[C@H](N)C(=O)O` [Compound I-44]: “A (a % activity relative to leucine of ≥40%)”; `COC(=O)/C=C/C(=O)N[C@@H](CC(C)C)C(=O)O` [Compound I-45, (S,E)-2-(4-methoxy-4-oxobut-2-enamido)-4-methylpentanoic Acid]: “B (a % activity relative to leucine of ≤−40%)”; `CC(C)C(F)(F)[C@H](N)C(=O)O` [Compound I-46, (R)-2-amino-3,3-difluoro-4-methylpentanoic Acid]: “C (a % activity relative to leucine of between -40 and 40%)”.
For the compound `CC(C)C(F)(F)[C@@H](N)C(=O)O` [Compound I-47, (S)-2-amino-3,3-difluoro-4-methylpentanoic Acid], the “Activity of Leucine: % Activity” value was “C (a % activity relative to leucine of between -40 and 40%)”.
Turning to `CC(C)(C)C[C@H](N)C(N)=O` [Compound I-48], the “Activity of Leucine: % Activity” value is “C (a % activity relative to leucine of between -40 and 40%)”.
Next, `CN[C@@H](CC(C)(C)C)C(N)=O` [Compound I-49]: “C (a % activity relative to leucine of between -40 and 40%)”; `CN[C@@H](CC(C)(C)C)C(=O)O` [Compound I-50]: “C (a % activity relative to leucine of between -40 and 40%)”.
With `CC(C)C[C@H](N)C(=O)NS(C)(=O)=O.Cl` [Compound I-147, (S)-2-amino-4-methyl-N-(methylsulfonyl)pentanamide Hydrochloride], the “Activity of Leucine: % Activity” value was “A (a % activity relative to leucine of ≥40%)”.
Next, `CC(C)C[C@H](N)C(=O)NS(=O)(=O)c1ccccc1` [Compound I-148]: “A (a % activity relative to leucine of ≥40%)”; `CC(C)C[C@H](N)C(=O)N(C)C` [Compound I-149]: “C (a % activity relative to leucine of between -40 and 40%)”.
Next, `CC(C)C[C@H](N)C(=O)N(C(C)C)C(C)C` [Compound I-150]: “C (a % activity relative to leucine of between -40 and 40%)”.
Next, `CC(C)C[C@H](N)C(=O)N1CCCCC1` [Compound I-151]: “C (a % activity relative to leucine of between -40 and 40%)”.
Turning to `CC(C)C[C@H](N)C(=O)N(C)CC(C)C` [Compound I-152], the “Activity of Leucine: % Activity” value was “C (a % activity relative to leucine of between -40 and 40%)”.
Next, `CC(C)C[C@H](N)C(=O)N1CCCC[C@@H]1C` [Compound I-153]: “C (a % activity relative to leucine of between -40 and 40%)”.
Next, `CC(C)C[C@H](N)C(=O)N1CCCC1` [Compound I-154]: “C (a % activity relative to leucine of between -40 and 40%)”; `CC(C)C[C@H](N)C(=O)N(CC(C)C)CC(C)C` [Compound I-155]: “C (a % activity relative to leucine of between -40 and 40%)”; `CC(C)C[C@@H](N)S(=O)(=O)O` [Compound I-156]: “C (a % activity relative to leucine of between -40 and 40%)”.
The same measure for `CC(C)C[C@H](N)S(=O)(=O)O` [Compound I-157]: “B to C”; for `CN(C)[C@@H](CC(C)(C)C)C(N)=O` [Compound I-158]: “C (a % activity relative to leucine of between -40 and 40%)”; for `CN(C)[C@@H](CC(C)(C)C)C(=O)O` [Compound I-159]: “A (a % activity relative to leucine of ≥40%)”.
Take `CC(C)CNC(=O)[C@@H](N)CC(C)C` [Compound I-160]: the “Activity of Leucine: % Activity” value is “C (a % activity relative to leucine of between -40 and 40%)”.
The same measure for `CC(C)C[C@H](N)C(=O)N1CCCC[C@H]1C` [Compound I-161]: “C (a % activity relative to leucine of between -40 and 40%)”; for `CC(C)C[C@H](N)C(=O)N(C)C1CCCC1` [Compound I-162]: “C (a % activity relative to leucine of between -40 and 40%)”; for `N[C@H](CC(C(F)(F)F)C(F)(F)F)C(=O)O` [Compound I-163]: “A (a % activity relative to leucine of ≥40%)”.
Next, `N[C@@H](CC(C(F)(F)F)C(F)(F)F)C(=O)O` [Compound I-164, (S)-2-Amino-5,5,5-trifluoro-4-(trifluoromethyl)pentanoic Acid]: “A (a % activity relative to leucine of ≥40%)”; `CC(C)C[C@H](N)C(=O)NC(C)(C)C` [Compound I-165]: “A to C”.
The same measure for `CC(C)C[C@H](N)C(=O)NC(C)C` [Compound I-166]: “C (a % activity relative to leucine of between -40 and 40%)”.
